In one assay the target is hD2L receptors (Homo sapiens, UniProt P14416). Kind of assay: D2R Gi/o-mediated cAMP inhibition assay. The class given is cell-based. As to conditions: for cAMP Emax (%): HEK293T cells, GloSensor-22F; for cAMP Emax (%) / Emax: normalized to maximum cAMP inhibition by quinpirole (100%); for Emax: HEK-293T, read-out: cAMP Emax (%), HEK293T cells, GloSensor-22F.
In another assay the target is D2L receptors (Homo sapiens, UniProt P14416). Kind of assay: D2R β-arrestin-2 recruitment Tango assay. The class given is cell-based. As to conditions: for Emax: HTLA, read-out: β-arrestin Emax (%).
The target in a further assay is mouse D2Long (Mus musculus, UniProt P61168). Kind of assay: BRET β-arrestin-2 recruitment assay with GRK2 co-expression. The class given is cell-based. As to conditions: for β-arrestin-2 recruitment agonist activity in BRET assay: up to 1 µM, GRK2 co-expressed.
The target of a further assay is D2R (Homo sapiens, UniProt P14416). Kind of assay: Radioligand binding, D2R.
The next assay deals with D1R (Homo sapiens, UniProt P21728). Kind of assay: Radioligand binding, D1R.
The next assay addresses D3R (Homo sapiens, UniProt P35462). Description: Radioligand binding, D3R.
The target in the next assay is T1, D4R (Homo sapiens, UniProt P21917).
T1 sequence (P21917 1-419): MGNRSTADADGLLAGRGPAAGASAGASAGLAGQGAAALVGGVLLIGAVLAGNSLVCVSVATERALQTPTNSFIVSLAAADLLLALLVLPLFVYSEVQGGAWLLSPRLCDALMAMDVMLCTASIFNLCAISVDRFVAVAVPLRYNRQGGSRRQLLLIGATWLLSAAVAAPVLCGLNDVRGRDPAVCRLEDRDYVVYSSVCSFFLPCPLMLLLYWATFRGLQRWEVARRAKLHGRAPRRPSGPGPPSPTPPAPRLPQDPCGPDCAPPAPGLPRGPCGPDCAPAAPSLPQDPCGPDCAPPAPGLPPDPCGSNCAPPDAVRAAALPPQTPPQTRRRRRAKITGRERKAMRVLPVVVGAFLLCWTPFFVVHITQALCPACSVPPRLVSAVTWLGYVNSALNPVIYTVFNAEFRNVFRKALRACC
Description: Radioligand binding, D4R.

Another assay addresses D5R (Homo sapiens, UniProt P21918). Description: Radioligand binding, D5R.
The next assay has as its target T2, 5-HT1A (Homo sapiens, UniProt P08908).
T2 sequence (P08908 1-422): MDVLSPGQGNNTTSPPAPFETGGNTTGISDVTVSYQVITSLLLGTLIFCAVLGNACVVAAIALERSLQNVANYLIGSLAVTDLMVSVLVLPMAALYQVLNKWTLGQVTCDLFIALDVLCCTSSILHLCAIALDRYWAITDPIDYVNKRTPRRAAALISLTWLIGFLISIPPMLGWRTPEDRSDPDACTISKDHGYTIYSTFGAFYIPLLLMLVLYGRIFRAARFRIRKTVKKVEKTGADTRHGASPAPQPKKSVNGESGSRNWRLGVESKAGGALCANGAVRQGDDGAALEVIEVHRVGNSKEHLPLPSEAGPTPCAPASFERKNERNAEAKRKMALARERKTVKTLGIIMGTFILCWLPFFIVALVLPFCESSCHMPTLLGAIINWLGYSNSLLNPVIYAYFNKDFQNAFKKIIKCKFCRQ
Kind of assay: Radioligand binding, 5-HT1A. As to conditions: Binding affinity Ki (nM), 5-HT1A.

In another assay the target is 5-HT1B (Homo sapiens, UniProt P28222). Kind of assay: Radioligand binding, 5-HT1B.
In a further assay the target is 5-HT1D (Homo sapiens, UniProt P28221). Description: Radioligand binding, 5-HT1D.
A further assay deals with 5-HT2A (Homo sapiens, UniProt P28223). Description: Radioligand binding, 5-HT2A.
The next assay concerns the target T3, 5-HT2C (Homo sapiens, UniProt P28335).
T3 sequence (P28335 33-458): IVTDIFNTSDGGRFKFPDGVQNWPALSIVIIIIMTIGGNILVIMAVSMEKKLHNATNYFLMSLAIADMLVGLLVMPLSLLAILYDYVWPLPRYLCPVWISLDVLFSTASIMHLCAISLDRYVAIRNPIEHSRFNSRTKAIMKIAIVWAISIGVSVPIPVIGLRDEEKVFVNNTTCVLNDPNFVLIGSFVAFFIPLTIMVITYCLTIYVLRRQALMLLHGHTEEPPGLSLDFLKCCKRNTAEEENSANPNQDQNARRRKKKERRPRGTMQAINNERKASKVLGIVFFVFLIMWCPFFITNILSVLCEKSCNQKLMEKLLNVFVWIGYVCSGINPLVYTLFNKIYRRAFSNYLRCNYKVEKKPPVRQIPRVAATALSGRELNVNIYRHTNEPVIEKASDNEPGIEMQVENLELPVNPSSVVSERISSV
Description: Radioligand binding, 5-HT2C.

The next assay concerns the target 5-HT5A (Homo sapiens, UniProt P47898). Kind of assay: Radioligand binding, 5-HT5A.
The next assay addresses 5-HT7 (Homo sapiens, UniProt P34969). Description: Radioligand binding, 5-HT7.
In a further assay the target is H2-histamine receptor (Homo sapiens, UniProt P25021). Kind of assay: Radioligand binding, H2.
A further assay concerns the target 5-HT2B (Homo sapiens, UniProt P41595). Kind of assay: Radioligand binding, 5-HT2B. The conditions noted are these: Binding affinity Ki (nM), 5-HT2B.
Another assay has as its target T4, 5-HT3 (Homo sapiens, UniProt P46098).
T4 sequence (P46098 24-478): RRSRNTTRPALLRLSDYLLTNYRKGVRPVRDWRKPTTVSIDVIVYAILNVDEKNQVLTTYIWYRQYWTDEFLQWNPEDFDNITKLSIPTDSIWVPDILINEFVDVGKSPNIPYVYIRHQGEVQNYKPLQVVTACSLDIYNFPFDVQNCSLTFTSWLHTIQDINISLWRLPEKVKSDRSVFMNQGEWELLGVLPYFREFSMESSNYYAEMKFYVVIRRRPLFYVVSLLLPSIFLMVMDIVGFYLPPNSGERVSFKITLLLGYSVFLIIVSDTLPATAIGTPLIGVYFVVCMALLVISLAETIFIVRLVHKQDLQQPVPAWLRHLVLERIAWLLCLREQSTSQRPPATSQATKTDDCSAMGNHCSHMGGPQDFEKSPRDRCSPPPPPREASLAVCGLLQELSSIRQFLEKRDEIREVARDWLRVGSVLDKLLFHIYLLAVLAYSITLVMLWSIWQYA
Description: Radioligand binding, 5-HT3.

In another assay the target is 5-HT6 (Homo sapiens, UniProt P50406). Kind of assay: Radioligand binding, 5-HT6.
Assay [1] concerns the target T5, human D2Rlong (Homo sapiens, UniProt P14416). Description: DiscoverX PathHunter D2R β-arrestin-2 recruitment assay. The assay is classed as cell-based. As to conditions: D2R-expressing CHO cells; up to 10 µM; n=1, performed in duplicate.
Assay [2] concerns the target T5, human D2Rlong. Kind of assay: cell-based. The conditions noted are these: for Gαi1-Gγ2 dissociation BRET partial agonist activity relative to quinpirole: HEK293T cells.

The structures appear in SMILES notation. “Also recorded” adds a separate entry of the source.

D5R, sequence (P21918 whole entry): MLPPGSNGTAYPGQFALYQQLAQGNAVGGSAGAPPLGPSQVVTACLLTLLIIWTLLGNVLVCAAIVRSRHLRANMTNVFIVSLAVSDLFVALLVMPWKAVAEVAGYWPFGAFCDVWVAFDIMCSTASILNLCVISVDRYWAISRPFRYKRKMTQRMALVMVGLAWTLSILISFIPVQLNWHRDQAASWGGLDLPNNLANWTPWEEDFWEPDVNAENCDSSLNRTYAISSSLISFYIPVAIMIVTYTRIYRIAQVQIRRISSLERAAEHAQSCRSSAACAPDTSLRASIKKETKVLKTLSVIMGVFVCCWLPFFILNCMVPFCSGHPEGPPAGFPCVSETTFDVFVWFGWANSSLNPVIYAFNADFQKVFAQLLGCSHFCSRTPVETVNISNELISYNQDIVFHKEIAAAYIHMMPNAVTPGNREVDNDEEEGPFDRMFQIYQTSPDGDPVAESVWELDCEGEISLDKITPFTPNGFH
D1R, sequence (P21728 whole entry): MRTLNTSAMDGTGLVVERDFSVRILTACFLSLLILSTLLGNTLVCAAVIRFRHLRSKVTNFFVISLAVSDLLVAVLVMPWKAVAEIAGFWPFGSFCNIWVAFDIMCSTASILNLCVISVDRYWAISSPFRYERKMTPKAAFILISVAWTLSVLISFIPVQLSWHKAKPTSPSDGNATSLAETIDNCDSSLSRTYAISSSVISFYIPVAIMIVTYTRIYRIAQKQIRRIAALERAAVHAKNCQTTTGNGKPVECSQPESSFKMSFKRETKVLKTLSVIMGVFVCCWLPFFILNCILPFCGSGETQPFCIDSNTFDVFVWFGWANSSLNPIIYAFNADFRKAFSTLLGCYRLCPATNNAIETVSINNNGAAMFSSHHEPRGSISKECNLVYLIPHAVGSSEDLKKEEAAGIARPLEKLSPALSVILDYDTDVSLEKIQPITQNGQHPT
5-HT1B, sequence (P28222 whole entry, species assumed): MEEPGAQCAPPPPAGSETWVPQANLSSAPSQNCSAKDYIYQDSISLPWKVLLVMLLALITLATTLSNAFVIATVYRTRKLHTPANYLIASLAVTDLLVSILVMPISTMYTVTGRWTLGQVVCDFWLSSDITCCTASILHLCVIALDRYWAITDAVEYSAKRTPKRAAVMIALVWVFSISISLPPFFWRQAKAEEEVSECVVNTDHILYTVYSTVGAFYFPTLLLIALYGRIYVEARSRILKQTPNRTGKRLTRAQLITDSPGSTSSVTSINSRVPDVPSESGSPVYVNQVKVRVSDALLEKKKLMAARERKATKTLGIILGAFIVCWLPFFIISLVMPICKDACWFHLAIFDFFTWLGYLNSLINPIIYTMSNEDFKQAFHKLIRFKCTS
5-HT7, sequence (P34969 whole entry, species assumed): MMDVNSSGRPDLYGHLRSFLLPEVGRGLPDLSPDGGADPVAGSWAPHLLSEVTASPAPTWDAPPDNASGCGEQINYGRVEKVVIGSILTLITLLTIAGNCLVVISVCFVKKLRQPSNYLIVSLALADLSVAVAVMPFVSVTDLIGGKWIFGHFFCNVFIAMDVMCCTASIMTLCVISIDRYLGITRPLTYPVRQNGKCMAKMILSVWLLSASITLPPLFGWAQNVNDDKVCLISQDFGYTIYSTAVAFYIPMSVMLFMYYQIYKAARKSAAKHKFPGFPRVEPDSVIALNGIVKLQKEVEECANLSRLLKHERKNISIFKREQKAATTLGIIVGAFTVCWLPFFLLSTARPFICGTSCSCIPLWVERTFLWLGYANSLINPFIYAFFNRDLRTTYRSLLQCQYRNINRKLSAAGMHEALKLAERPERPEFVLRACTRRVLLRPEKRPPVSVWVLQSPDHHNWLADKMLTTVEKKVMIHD
5-HT1D, sequence (P28221 whole entry, species assumed): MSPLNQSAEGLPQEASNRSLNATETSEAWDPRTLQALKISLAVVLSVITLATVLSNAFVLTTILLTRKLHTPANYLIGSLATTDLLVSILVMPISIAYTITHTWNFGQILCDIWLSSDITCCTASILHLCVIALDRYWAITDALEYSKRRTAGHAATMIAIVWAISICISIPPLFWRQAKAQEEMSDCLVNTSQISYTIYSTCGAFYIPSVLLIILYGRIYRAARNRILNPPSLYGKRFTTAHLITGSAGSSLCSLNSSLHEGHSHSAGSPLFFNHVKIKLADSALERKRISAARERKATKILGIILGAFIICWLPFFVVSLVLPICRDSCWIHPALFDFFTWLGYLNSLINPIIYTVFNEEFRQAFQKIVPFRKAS
5-HT2A, sequence (P28223 whole entry, species assumed): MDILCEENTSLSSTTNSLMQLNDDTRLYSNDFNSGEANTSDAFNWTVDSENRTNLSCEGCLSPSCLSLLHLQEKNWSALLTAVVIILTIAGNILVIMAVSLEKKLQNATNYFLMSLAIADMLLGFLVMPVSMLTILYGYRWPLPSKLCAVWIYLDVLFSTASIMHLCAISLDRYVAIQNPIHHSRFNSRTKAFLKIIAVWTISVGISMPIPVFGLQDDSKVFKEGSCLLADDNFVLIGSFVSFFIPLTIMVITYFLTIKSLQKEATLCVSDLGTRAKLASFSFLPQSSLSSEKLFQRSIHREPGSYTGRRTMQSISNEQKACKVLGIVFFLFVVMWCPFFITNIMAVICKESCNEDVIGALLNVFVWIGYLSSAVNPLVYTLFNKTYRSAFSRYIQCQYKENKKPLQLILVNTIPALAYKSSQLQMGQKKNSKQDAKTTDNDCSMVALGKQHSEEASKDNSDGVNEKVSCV
D2L receptors, sequence (P14416 whole entry): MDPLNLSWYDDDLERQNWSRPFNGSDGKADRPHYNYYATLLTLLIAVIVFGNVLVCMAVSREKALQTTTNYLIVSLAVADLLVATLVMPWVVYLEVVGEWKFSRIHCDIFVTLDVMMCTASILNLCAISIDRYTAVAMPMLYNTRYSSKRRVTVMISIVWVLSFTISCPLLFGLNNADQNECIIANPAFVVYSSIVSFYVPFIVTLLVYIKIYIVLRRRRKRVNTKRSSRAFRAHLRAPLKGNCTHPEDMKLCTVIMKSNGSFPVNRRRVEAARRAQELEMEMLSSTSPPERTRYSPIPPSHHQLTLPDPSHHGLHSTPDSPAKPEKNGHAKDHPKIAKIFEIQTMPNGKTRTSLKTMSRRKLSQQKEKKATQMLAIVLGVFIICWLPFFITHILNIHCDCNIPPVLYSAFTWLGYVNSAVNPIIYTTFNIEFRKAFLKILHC
hD2L receptors, sequence (P14416 whole entry): as above
D2R, sequence (P14416 whole entry): as above
T5 sequence (P14416 whole entry): as above
5-HT2B, sequence (P41595 whole entry, species assumed): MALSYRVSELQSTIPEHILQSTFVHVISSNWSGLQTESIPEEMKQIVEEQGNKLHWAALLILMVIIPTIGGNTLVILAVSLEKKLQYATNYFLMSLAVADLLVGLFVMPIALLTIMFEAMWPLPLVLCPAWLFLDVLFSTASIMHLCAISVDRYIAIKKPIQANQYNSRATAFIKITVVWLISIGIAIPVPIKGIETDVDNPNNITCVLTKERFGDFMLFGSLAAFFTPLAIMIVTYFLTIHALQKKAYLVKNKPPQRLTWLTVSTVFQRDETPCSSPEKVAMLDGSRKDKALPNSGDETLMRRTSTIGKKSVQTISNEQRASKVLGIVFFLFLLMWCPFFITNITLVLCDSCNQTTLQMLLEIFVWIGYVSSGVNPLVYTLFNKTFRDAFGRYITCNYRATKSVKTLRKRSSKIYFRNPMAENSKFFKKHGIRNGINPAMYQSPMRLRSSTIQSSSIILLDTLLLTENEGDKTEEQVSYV
mouse D2Long, sequence (P61168 whole entry): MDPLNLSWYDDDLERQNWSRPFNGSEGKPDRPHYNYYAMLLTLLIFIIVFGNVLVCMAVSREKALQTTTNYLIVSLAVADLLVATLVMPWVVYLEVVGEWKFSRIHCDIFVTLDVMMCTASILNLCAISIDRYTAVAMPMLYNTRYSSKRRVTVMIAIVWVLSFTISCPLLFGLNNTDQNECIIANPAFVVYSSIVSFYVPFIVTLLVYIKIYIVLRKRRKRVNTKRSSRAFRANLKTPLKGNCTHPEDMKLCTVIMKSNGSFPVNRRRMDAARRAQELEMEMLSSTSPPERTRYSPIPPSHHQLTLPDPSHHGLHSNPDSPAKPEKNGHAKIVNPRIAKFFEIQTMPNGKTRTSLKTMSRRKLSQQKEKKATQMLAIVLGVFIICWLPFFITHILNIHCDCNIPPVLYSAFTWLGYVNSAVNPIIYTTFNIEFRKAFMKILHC
D3R, sequence (P35462 whole entry): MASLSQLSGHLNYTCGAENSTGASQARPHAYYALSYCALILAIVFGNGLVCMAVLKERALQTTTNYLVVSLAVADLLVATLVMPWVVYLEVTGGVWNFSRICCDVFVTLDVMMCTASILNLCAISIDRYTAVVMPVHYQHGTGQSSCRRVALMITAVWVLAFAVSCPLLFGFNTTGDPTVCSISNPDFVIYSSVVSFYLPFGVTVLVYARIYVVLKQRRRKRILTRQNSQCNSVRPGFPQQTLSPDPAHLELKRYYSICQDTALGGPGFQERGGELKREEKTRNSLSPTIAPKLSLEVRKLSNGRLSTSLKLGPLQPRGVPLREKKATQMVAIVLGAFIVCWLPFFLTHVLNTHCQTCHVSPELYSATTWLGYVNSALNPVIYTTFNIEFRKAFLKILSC
5-HT5A, sequence (P47898 whole entry, species assumed): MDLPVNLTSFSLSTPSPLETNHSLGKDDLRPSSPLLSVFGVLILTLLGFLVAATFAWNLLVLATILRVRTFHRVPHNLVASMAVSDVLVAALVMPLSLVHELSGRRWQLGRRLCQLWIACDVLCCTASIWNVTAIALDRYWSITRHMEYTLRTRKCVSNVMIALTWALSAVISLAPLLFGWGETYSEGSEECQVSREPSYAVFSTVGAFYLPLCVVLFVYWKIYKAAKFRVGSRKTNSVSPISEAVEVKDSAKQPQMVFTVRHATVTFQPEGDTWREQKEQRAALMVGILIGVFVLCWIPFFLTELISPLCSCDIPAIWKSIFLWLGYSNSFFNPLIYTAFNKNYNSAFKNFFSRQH

Take `Cc1ccc2cccc(N3CCN(CCCCOc4ccc5sc(C(C)C)nc5c4)CC3)c2n1` [Compound 49, 2-Isopropyl-5-(4-(4-(2-methylquinolin-8-yl)piperazin-1-yl)butoxy)benzo[d]thiazole]: the “cAMP Emax (%)” value at hD2L receptors is listed as 32%. Moreover, the results for the Emax on hD2L receptors and at D2L receptors were 30 to 40% and < 20%, respectively. Besides, the “β-arrestin-2 recruitment agonist activity in BRET assay” value at mouse D2Long is given as “not active; also recorded: no β-arrestin recruitment”. The inhibition constant (Ki) at D2R was 0.045 µM; at D1R, 2 µM; on D3R, 0.064 µM; at D4R, 7.1 µM; at D5R, 1.5 µM; at 5-HT1A, 14 nM. The Ki amounted to 1.6 µM on 5-HT1B; 0.094 µM at 5-HT1D; 0.11 µM at 5-HT2A; 0.14 µM at 5-HT2C; 1.4 µM at 5-HT5A; 0.069 µM at 5-HT7. At H2-histamine receptor, this molecule gave an inhibitory constant (Ki) of 0.43 µM.

As to `CCc1nc2cc(OCCCCN3CCC(c4cccc(Cl)c4Cl)CC3)ccc2s1` [Compound 46, 5-(4-(4-(2,3-Dichlorophenyl)piperidin-1-yl)butoxy)-2-ethylbenzo[d]thiazole], the “cAMP Emax (%)” value on hD2L receptors is given as 43%. In addition, the Emax at hD2L receptors was 40 to 50%; on D2L receptors, < 20%. The “β-arrestin-2 recruitment agonist activity in BRET assay” value on mouse D2Long was “not active; also recorded: no β-arrestin recruitment”. Further, the inhibition constant Ki on D2R is 0.17 µM; on D1R, 1.7 µM; on D3R it was 0.1 µM; on D4R, 1.8 µM; at 5-HT1A, 100 nM; on 5-HT1D, 0.82 µM. Besides, the Ki at 5-HT2A is 0.14 µM; on 5-HT2B, 71 nM; on 5-HT3 it was 1.5 µM; on 5-HT5A, 1.6 µM.

As for `CNc1nc2cc(OCCCCN3CCC(c4cccc(Cl)c4Cl)CC3)ccc2s1` [Compound 54, 5-(4-(4-(2,3-Dichlorophenyl)piperidin-1-yl)butoxy)-N-methylbenzo[d]thiazol-2-amine], the Emax at hD2L receptors was in the range of 40 to 50%. Further, the “β-arrestin-2 recruitment agonist activity in BRET assay” value on mouse D2Long is “not active; also recorded: no β-arrestin recruitment”. Further, the Ki at D2R was 0.099 µM; on D1R, 1.1 µM; on D3R, 0.069 µM; at D4R, 0.43 µM; at D5R, 1.8 µM; at 5-HT1A, 66 nM. Moreover, the Ki at 5-HT1B was 2.6 µM; at 5-HT1D, 0.41 µM; on 5-HT2A, 0.07 µM; at 5-HT2B it was < 20 nM; on 5-HT6 it was 0.41 µM.

Consider `CC(C)c1nc2cc(OCCCCN3CCN(c4cccc5c4OCCO5)CC3)ccc2s1` [Compound 53, 5-(4-(4-(2,3-Dihydrobenzo[b][1,4]dioxin-5-yl)piperazin-1-yl)butoxy)-2-isopropylbenzo[d]thiazole], for which the Emax on hD2L receptors is 30 to 40%; on D2L receptors, < 20%. In addition, the “β-arrestin-2 recruitment agonist activity in BRET assay” value at mouse D2Long was “not active; also recorded: no β-arrestin recruitment”. In addition, the “β-arrestin recruitment activity as measured by DiscoverX” value on human D2Rlong [1] is given as “lack of β-arrestin-2 recruitment activity; also recorded: no activity”. Also, the EC50 at human D2Rlong [2] stood at 0.0046 µM. The “Gαi1-Gγ2 dissociation BRET partial agonist activity relative to quinpirole” value on human D2Rlong [2] is listed as 47%. For the same molecule, the Ki was 0.03 µM at D2R; 2 µM on D1R; 0.031 µM on D3R; 0.077 µM on D4R; 1.1 µM on D5R; 1.4 nM at 5-HT1A. Moreover, the Ki at 5-HT1B stood at 0.42 µM; on 5-HT1D, 0.1 µM; on 5-HT2A, 0.029 µM; on 5-HT3 it was 2.6 µM; on 5-HT7, 0.031 µM.

For `Cc1nc2cc(OCCCCN3CCN(c4cccc(Cl)c4Cl)CC3)ccc2s1` [Compound 1, 5-(4-(4-(2,3-Dichlorophenyl)piperazin-1-yl)butoxy)-2-methylbenzo[d]thiazole], the Emax on hD2L receptors came to 50%; on D2L receptors, 23%. The “inhibition of dopamine-stimulated D2R G protein activation as measured by cAMP inhibition” value against hD2L receptors (antagonist mode, Figure S2) is recorded as “partial inhibition”. In addition, the EC50 on D2L receptors (β-arrestin EC50 (nM), Tango assay, HTLA cells) worked out at 13 nM; on human D2Rlong [2], 0.0036 µM. Moreover, the midpoint of inhibition at mouse D2Long, the IC50, lay at 0.018 µM. Also, on mouse D2Long (antagonist mode), the “antagonist activity on dopamine-stimulated β-arrestin-2 recruitment (BRET)” value is recorded as “full antagonist activity”. Further, the “β-arrestin-2 recruitment agonist activity in BRET assay” value at mouse D2Long is “no activity”. Further, at human D2Rlong [1], the “β-arrestin recruitment activity as measured by DiscoverX” value was “lack of β-arrestin-2 recruitment activity; also recorded: no activity”. In addition, at human D2Rlong [2], the “Gαi1-Gγ2 dissociation BRET partial agonist activity relative to quinpirole” value was found to be 57%. Further, the Ki on D2R came to 0.15 µM; on D3R it was 0.013 µM; at D4R, 0.082 µM; at 5-HT1A, 86 nM; on 5-HT1B, 1.7 µM; at 5-HT1D it was 0.32 µM. Further, the Ki was 0.12 µM on 5-HT2A, 38 nM on 5-HT2B and 0.14 µM on 5-HT7.

Values taken from PMC5148701 (Journal of medicinal chemistry, 2016).
